For one test, the target named is T1, human recombinant MAO-A (Homo sapiens, UniProt P21397).
T1 construct: purchased BD Biosciences (Bedford, MA, USA)
T1 sequence (P21397 1-527): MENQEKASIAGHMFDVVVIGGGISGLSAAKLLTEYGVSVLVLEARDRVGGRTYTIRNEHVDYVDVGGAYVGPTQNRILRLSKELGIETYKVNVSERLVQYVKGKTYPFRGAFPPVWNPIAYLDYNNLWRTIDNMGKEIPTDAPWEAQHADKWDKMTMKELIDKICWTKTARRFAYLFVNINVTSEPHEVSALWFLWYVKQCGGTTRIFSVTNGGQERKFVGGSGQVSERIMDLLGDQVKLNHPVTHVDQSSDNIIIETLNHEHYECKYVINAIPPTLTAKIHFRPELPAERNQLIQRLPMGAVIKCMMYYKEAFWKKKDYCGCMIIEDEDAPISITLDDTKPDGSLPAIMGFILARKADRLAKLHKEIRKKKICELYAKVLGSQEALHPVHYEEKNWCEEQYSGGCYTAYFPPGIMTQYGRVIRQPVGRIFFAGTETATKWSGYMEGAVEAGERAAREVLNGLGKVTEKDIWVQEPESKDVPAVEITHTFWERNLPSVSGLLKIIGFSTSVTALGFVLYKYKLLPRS
In words: kynuramine oxidation deamination assay, MAO-A inhibition (IC50). In kind it is biochemical. Particulars: kynuramine 80 μM, mean ± S.D. of triplicate. The procedure: (§1) A fixed single concentration of kynuramine substrate and varying concentrations of the test inhibitor were used to determine the IC50 values. The kynuramine concentrations for MAO-A and -B were 80 μM and 50 μM, respectively. These concentrations of kynuramine were twice the apparent KM value for substrate binding. […] Enzymatic reactions were performed in 50 μL of the assay mixture containing 0.1 M potassium phosphate buffer, pH 7.4. […] Reactions were initiated by the addition of 12.50 μL of MAO-A (to 5 μg/mL) or -B (to 10 μg/mL). The plate was incubated for 20 min at 37 °C, and the enzymatic reaction was terminated by the addition of 18.8 μL of 2N NaOH. Formation of the enzyme product, 4-hydroxyquinoline, was measured fluorometrically using a SpectraMax M5 fluorescence plate reader (Molecular Devices, Sunnyvale, CA, USA) with excitation (320 nm) and emission (380 nm) wavelengths and the Soft Max Pro program. The inhibition effects of enzyme activity were calculated as percent of product formation compared to the corresponding control (enzyme–substrate reaction) without inhibitors. Controls included the assays where the enzyme or the substrate was added after terminating the reaction to determine the interference with the fluorescence measurements. The IC50 values for MAO-A and -B inhibition were calculated from the concentration-dependent inhibition curves using XLFit® software.

A further test deals with T2, human recombinant MAO-B (Homo sapiens, UniProt P27338).
T2 sequence (P27338 1-520): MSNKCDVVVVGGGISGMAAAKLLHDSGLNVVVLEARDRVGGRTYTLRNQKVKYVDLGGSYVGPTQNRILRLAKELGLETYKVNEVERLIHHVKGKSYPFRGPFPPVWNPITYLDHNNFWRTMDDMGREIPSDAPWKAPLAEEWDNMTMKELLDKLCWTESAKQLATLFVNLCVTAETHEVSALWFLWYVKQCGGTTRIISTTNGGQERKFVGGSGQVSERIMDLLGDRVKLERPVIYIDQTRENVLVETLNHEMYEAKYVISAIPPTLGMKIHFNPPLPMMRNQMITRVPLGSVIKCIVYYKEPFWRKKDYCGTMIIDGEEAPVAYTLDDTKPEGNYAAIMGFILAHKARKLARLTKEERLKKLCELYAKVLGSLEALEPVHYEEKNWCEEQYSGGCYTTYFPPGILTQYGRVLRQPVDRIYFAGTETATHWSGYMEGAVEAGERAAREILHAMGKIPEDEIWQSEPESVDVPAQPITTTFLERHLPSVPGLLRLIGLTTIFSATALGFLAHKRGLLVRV
The experiment in a line: kynuramine oxidation deamination assay, MAO-B inhibition (IC50). It is filed as biochemical. Also noted: purchased BD Biosciences (Bedford, MA, USA). Particulars: for Selectivity Index MAO-A/B: ratio of IC50 MAO-A / MAO-B; for IC50: recombinant human MAO-B, kynuramine 50 μM, mean ± S.D. of triplicate. As for the experimental part:
as §1, with “The kynuramine concentrations for MAO-A and -B were 80 μM and 50 μM, respectively.” left out

The next test deals with human recombinant MAO B. Particulars: cited from earlier work; for IC50: human recombinant, kynuramine.
In another test the test system is human recombinant MAO A. The conditions noted are these: human recombinant; kynuramine; cited from earlier work.

Broadly, the IC50 is the concentration that inhibits the measured activity by half.

The structures appear in SMILES notation.

For the compound `CCCOc1ccc(/C=C/C(=O)c2c(O)cc(OC)cc2OC)cc1` [Compound 1a, (E)-1-(2-Hydroxy-4,6-dimethoxyphenyl)-3-(4-propoxyphenyl)prop-2-en-1-one], the IC50 on human recombinant MAO-A is 0.515 ± 0.024 µM. Moreover, on human recombinant MAO-B, the “Selectivity Index MAO-A/B” value amounted to 1.3 and the IC50 is 0.4 ± 0.024 µM.

As to `COc1cc(OC)c2c(=O)cc(-c3ccc(NCC4CC4)cc3)oc2c1` [Compound 8c, 2-(4-((Cyclopropylmethyl)amino)phenyl)-5,7-dimethoxy-4H-chromen-4-one], the IC50 at human recombinant MAO-A worked out at 39.1 ± 5.14 µM; at human recombinant MAO-B, 12.7 ± 0.29 µM. The “Selectivity Index MAO-A/B” value at human recombinant MAO-B was determined as 3.1.

`CCCOc1ccc(-c2cc(=O)c3c(OC)cc(OC)cc3o2)cc1` [Compound 1b, 5,7-Dimethoxy-2-(4-propoxyphenyl)-4H-chromen-4-one]: on human recombinant MAO-A, the IC50 is > 100 µM. Moreover, at human recombinant MAO-B, the “Selectivity Index MAO-A/B” value is recorded as >58.8 and the IC50 was determined as 1.7 ± 0.076 µM.

Take `COc1cc(OC)c2c(=O)cc(-c3ccc(Br)cc3)oc2c1` [Compound 6b, 2-(4-Bromophenyl)-5,7-dimethoxy-4H-chromen-4-one]: the IC50 on human recombinant MAO-A turned out to be 87.8 ± 5.45 µM. In addition, at human recombinant MAO-B, the “Selectivity Index MAO-A/B” value is listed as 3.1 and the IC50 was found to be 28.4 ± 2.64 µM.

With `COc1ccc(-c2oc3cc(O)cc(O)c3c(=O)c2OC)cc1` [3,4′-Di-O-methyl kaempferol], the IC50 with human recombinant MAO B is 9670 ± 2390 nM; in the test with human recombinant MAO A it was 33 ± 42 nM.

Take `COc1cc(OC)c2c(=O)cc(-c3ccc(NC(C)C)cc3)oc2c1` [Compound 7c, 2-(4-(Isopropylamino)phenyl)-5,7-dimethoxy-4H-chromen-4-one]: on human recombinant MAO-A, the half-maximal inhibitory concentration (IC50) stood at 37.5 ± 0.476 µM. Besides, at human recombinant MAO-B, the “Selectivity Index MAO-A/B” value worked out at 4.0 and the IC50 was 9.45 ± 0.113 µM.

For the compound `COc1cc(O)c2c(=O)cc(-c3ccc(NCC4CC4)cc3)oc2c1` [Compound 8d, 2-(4-((Cyclopropylmethyl)amino)phenyl)-5-hydroxy-7-methoxy-4H-chromen-4-one], the IC50 on human recombinant MAO-A was 39.1 ± 0.555 µM. Besides, on human recombinant MAO-B, the “Selectivity Index MAO-A/B” value is given as 17.9 and the IC50 was determined as 2.19 ± 0.088 µM.

In the case of `C#CCOc1ccc(/C=C/C(=O)c2c(O)cc(OC)cc2OC)cc1` [Compound 4a, (E)-1-(2-Hydroxy-4,6-dimethoxyphenyl)-3-(4-(prop-2-yn-1-yloxy)phenyl)prop-2-en-1-one], the IC50 on human recombinant MAO-A was determined as 9.42 ± 1.78 µM. On human recombinant MAO-B, the “Selectivity Index MAO-A/B” value came out at 1.1 and the IC50 amounted to 8.33 ± 0.787 µM.

For the compound `COc1cc(O)c2c(=O)cc(-c3ccc(O)cc3)oc2c1` [Genkwanin], in the test on human recombinant MAO B, the “Selectivity Index MAO-A/B” value is given as 0.40 and the IC50 is 350 ± 30 nM. In addition, the IC50 in the test on human recombinant MAO A is 140 ± 10 nM.

As for `COc1ccc(-c2cc(=O)c3c(O)cc(O)cc3o2)cc1O` [Diosmetin], in the test on human recombinant MAO B, the “Selectivity Index MAO-A/B” value is 3.63 and the IC50 was 1580 ± 880 nM. Also, the IC50 in the test with human recombinant MAO A is 5740 ± 570 nM.

`C#CCOc1ccc(-c2cc(=O)c3c(OC)cc(OC)cc3o2)cc1` [Compound 4b, 5,7-Dimethoxy-2-(4-(prop-2-yn-1-yloxy)phenyl)-4H-chromen-4-one]: the IC50 at human recombinant MAO-A and on human recombinant MAO-B was > 100 µM throughout. For the same compound, the “Selectivity Index MAO-A/B” value on human recombinant MAO-B was >1.

For the compound `COc1cc(O)c(C(=O)/C=C/c2ccc(OC(C)C)cc2)c(OC)c1` [Compound 2a, (E)-1-(2-Hydroxy-4,6-dimethoxyphenyl)-3-(4-isopropoxyphenyl)prop-2-en-1-one], on human recombinant MAO-A, the IC50 stood at 0.117 ± 0.05 µM. Besides, on human recombinant MAO-B, the “Selectivity Index MAO-A/B” value is 2.4 and the IC50 is 0.049 ± 0.0035 µM.

Consider `CCCNc1ccc(-c2cc(=O)c3c(O)cc(OC)cc3o2)cc1` [Compound 6d, 5-Hydroxy-7-methoxy-2-(4-(propylamino)phenyl)-4H-chromen-4-one], for which the half-maximal inhibitory concentration (IC50) on human recombinant MAO-A amounted to 85.5 ± 1.59 µM. Besides, at human recombinant MAO-B, the “Selectivity Index MAO-A/B” value is listed as 55.0 and the IC50 was found to be 1.55 ± 0.137 µM.

With `CCCNc1ccc(-c2cc(=O)c3c(OC)cc(OC)cc3o2)cc1` [Compound 6c, 5,7-Dimethoxy-2-(4-(propylamino)phenyl)-4H-chromen-4-one], the IC50 at human recombinant MAO-A was > 100 µM; at human recombinant MAO-B, 22.1 ± 2.48 µM. Further, the “Selectivity Index MAO-A/B” value on human recombinant MAO-B is on record as >4.5.

On to `COc1cc(OC)c2c(=O)cc(-c3ccc(OCC(C)C)cc3)oc2c1` [Compound 3b, 2-(4-Isobutoxyphenyl)-5,7-dimethoxy-4H-chromen-4-one], for which the IC50 on human recombinant MAO-A is > 100 µM. At human recombinant MAO-B, the “Selectivity Index MAO-A/B” value is given as >13.8 and the IC50 worked out at 7.23 ± 2.14 µM.

Regarding `C#CCN[C@@H]1CCc2ccccc21` [Rasagiline], in the test with human recombinant MAO B, the “nature of MAO-B inhibition (reversible/irreversible)” value is reported as “irreversible MAO-B inhibitors” and the “selectivity towards MAO-B against MAO-A” value is recorded as 103 fold.

Turning to `COc1cc(O)c(C(=O)/C=C/c2ccc(OCC3CC3)cc2)c(OC)c1` [Compound 5a, (E)-3-(4-(Cyclopropylmethoxy)phenyl)-1-(2-hydroxy-4,6-dimethoxyphenyl)prop-2-en-1-one], the IC50 on human recombinant MAO-A stood at 1.3 ± 0.09 µM. Besides, at human recombinant MAO-B, the “Selectivity Index MAO-A/B” value worked out at 1.4 and the IC50 was found to be 0.9 ± 0.035 µM.

Consider `COc1cc(OC)c2c(=O)cc(-c3ccc(OCC4CC4)cc3)oc2c1` [Compound 5b, 2-(4-(Cyclopropylmethoxy)phenyl)-5,7-dimethoxy-4H-chromen-4-one], for which the IC50 was > 100 µM on human recombinant MAO-A and 22.8 ± 2.1 µM on human recombinant MAO-B. Besides, the “Selectivity Index MAO-A/B” value at human recombinant MAO-B is >4.4.

With `COc1cc(O)c(C(=O)/C=C/c2ccc(Br)cc2)c(OC)c1` [Compound 6a, (E)-3-(4-Bromophenyl)-1-(2-hydroxy-4,6-dimethoxyphenyl)prop-2-en-1-one], the figures for the IC50 at human recombinant MAO-A and at human recombinant MAO-B were 12.3 ± 0.249 µM and > 100 µM, respectively.

Consider `COc1cc(OC)c2c(=O)cc(-c3ccc(OC(C)C)cc3)oc2c1` [Compound 2b, 2-(4-Isopropoxyphenyl)-5,7-dimethoxy-4H-chromen-4-one], for which the IC50 at human recombinant MAO-A is > 100 µM. In addition, at human recombinant MAO-B, the “Selectivity Index MAO-A/B” value was >37.9 and the IC50 was found to be 2.64 ± 0.088 µM.

Turning to `COc1cc(O)c2c(=O)cc(-c3ccc(NC(C)C)cc3)oc2c1` [Compound 7d, 5-Hydroxy-2-(4-(Isopropylamino)phenyl)-7-methoxy-4H-chromen-4-one], the IC50 at human recombinant MAO-A came to 40.5 ± 2.37 µM. Moreover, on human recombinant MAO-B, the “Selectivity Index MAO-A/B” value is 97.1 and the IC50 turned out to be 0.417 ± 0.012 µM.

For the compound `COc1cc(O)c(C(=O)/C=C/c2ccc(OCC(C)C)cc2)c(OC)c1` [Compound 3a, (E)-1-(2-Hydroxy-4,6-dimethoxyphenyl)-3-(4-isobutoxyphenyl)prop-2-en-1-one], the results for the IC50 on human recombinant MAO-A and at human recombinant MAO-B were 0.42 ± 0.002 µM and 0.22 ± 0.0211 µM, respectively. The “Selectivity Index MAO-A/B” value at human recombinant MAO-B is on record as 1.9.

`COc1ccc2c(c1)[nH]c1c(C)nccc12` [Harmine, reference compound]: on human recombinant MAO-B, the 50% inhibitory concentration (IC50) was determined as 39 ± 1.41 µM.

The values are drawn from paper PMC8533211, “Computationally Assisted Lead Optimization of Novel Potent and Selective MAO-B Inhibitors” (Biomedicines, 2021).
